In patent US20210023012A1, “Solid Pharmaceutical Compositions for Treating HCV” (AbbVie Inc., priority 2019, published 2021):

Experiments:
[1] = Phase 1 single-dose crossover: bioavailability and food effect of Compound 1/Compound 2 bilayer tablets; type: in vivo, human; conditions: film-coated vs uncoated bilayer tablets, additional studies
clinical = conditions: human, in vivo
Excerpt: Target AUC was derived from the geometric mean of AUC values from a population of adult subjects who received Compound 1 and Compound 2.

Blood-to-plasma ratio = type: in vitro ADME; conditions: human, whole blood/plasma
[2] = Steady-state pharmacokinetics of film-coated granules in pediatric subjects by age group; type: in vivo, human; set-up: Ctrough: unit not given here; conditions: for Ctrough / AUC: Week 2; for AUC: human, oral, film-coated granules
Description: The study was designed to assess the steady state AUC and to assess the pharmacokinetics (PK) of Compound 1/Compound 2 in pediatric subjects by age group. […] Subjects were enrolled in this study and dosed with film-coated granules containing Compound 1/Compound 2 as generally described above in Example 3. [table] An intensive PK sample draw was done at the Week 2 visit with blood samples taken immediately prior to dose (0 hour) and at 2, 4, 6, and 12 hours post dose.

[3] = Binding to human plasma proteins; type: in vitro ADME; conditions: read-out: % Bound to human plasma proteins (converted)
[4] = Pharmacokinetic properties in healthy subjects; type: in vivo, human; conditions: for Tmax: oral, median, single doses
[5] = Phase 1 single-dose crossover: bioavailability and food effect of Compound 1/Compound 2 bilayer tablets; type: in vivo, human; conditions: for Cmax / AUC(0-inf) / AUC(0-t) / half-life / Tmax: human, in vivo, oral, N = 23; for Cmax / AUC(0-inf) / AUC(0-t): geometric mean; for half-life: harmonic mean; for Tmax: median
Description: Phase 1, single-dose, four-period, randomized, complete crossover clinical trials were conducted to determine the bioavailability and food effect of the Compound 1/Compound 2 film-coated bilayer tablets. Tablets described in Table 1b were used in Regimens A, B and C, and separate tablets containing either Compound 1 or Compound 2 were used in Regimen D. Subjects took a single dose of Compound 1/Compound 2 on Day 1 of each Period. There was a washout of 4 days between doses. • i. Regimens A and D: study drugs were taken under fasting conditions. • ii. Regimen B: study drugs were taken approximately 30 minutes after start of moderate-fat breakfast (about 30% calories from fat). • iii. Regimen C: study drugs were taken approx. 30 minutes after start of high-fat breakfast (50% calories from fat). For Regimens A, B and C, the single dose consisted of three tablets of Table 1b, each tablet contains 100 mg/40 mg Compound 1/Compound 2. For Regimen D, the single dose contained three tablets of Compound 1, each of which contained 100 mg Compound 1, as well as three tablets of Compound 2, each of which contained 40 mg Compound 2. [table] [table]

[6] = Single-dose crossover: bioavailability of Compound 1/Compound 2 mini-tablets; type: in vivo, human; conditions: for Cmax / AUC(0-inf) / AUC(0-t) / half-life / Tmax: human, in vivo, oral, N = 14; for Cmax / AUC(0-inf) / AUC(0-t): geometric mean; for half-life: harmonic mean; for Tmax: median
Description: In comparison, when administered with food, the mini-tablets provided an AUC that was only 5% lower than that provided by the regular tablets. […] All of the reference AUCs of the regular tablets were measured under fasting conditions.
14 subjects were enrolled in this study and dosed with co-formulated Compound 1/Compound 2 in mini-tablets. One subject spilled 4 mini-tablets (out of 100-150 total mini-tablets) during dosing of Period 2 (Regimen G) and was not excluded from the analysis. The mini-tablets were prepared according to a process similar to that described in Example 2.

[7] = Mass balance studies with [14C] compound, single dose; type: in vivo, human; conditions: single dose of [14C] compound
[8] = Predicted PK exposures (Pop-PK AUC) in pediatric subjects; type: in vivo; set-up: concentration or dose not given beside the values; conditions: human, oral
Excerpt: The predicted PK exposures (“Pop-PK AUC”) of Compound 1/Compound 2 based on all PK information collected in the study (including data from other study weeks) is shown in Table 13 and Table 13a.

[9] = mean systemic exposure with moderate to high fat meals
[10] = Regimen A: single dose bilayer tablets 300 mg/120 mg, fasting
[11] = Regimen B: single dose bilayer tablets 300 mg/120 mg with moderate fat breakfast
[12] = Regimen C: single dose bilayer tablets 300 mg/120 mg with high fat breakfast
[13] = Regimen D: single dose separate Compound 1 tablets (3 × 100 mg) and Compound 2 tablets (3 × 40 mg), fasting
[14] = Regimen F: single dose mini-tablets 200 mg/120 mg, fasting
[15] = Regimen G: single dose mini-tablets 200 mg/120 mg, non-fasting
[16] = Regimen J: two Compound 1 tablets (100 mg each) and three Compound 2 tablets (40 mg each), fasting

- Impact of film-coating on bioavailability [1]: minimal impact
- AUC (clinical): 1430 ng·h/mL
- blood plasma ratio (Blood-to-plasma ratio): 0.62
- Ctrough ([2]; 3 to <6 years old, post-adjustment 150 mg/60 mg, N 10): 17.5 (139)
- Ctrough ([2]; 6 to <9 years old, post-adjustment 200 mg/80 mg, N 9): 20.0 (119)
- Ctrough ([2]; 9 to <12 years old, post-adjustment 250 mg/100 mg, N 10): 40.8 (194)
- AUC ([2]; blood, 3 to <6 years old, pre-adjustment, 3 sachets, 120 mg/45 mg, read-out: AUC, Geometric Mean): 871 ng·h/mL
- AUC ([2]; blood, 6 to <9 years old, pre-adjustment, 4 sachets, 160 mg/60 mg, read-out: AUC, Geometric Mean): 987 ng·h/mL
- AUC ([2]; blood, 9 to <12 years old, pre-adjustment, 5 sachets, 200 mg/75 mg Compound 1/Compound 2, read-out: AUC, Geometric Mean): 1250 ng·h/mL
- AUC ([2]; in vivo, 3 to <6 years old, post-adjustment, 3 sachets, 150 mg/60 mg, N 10, read-out: AUC): 1660 ng·h/mL
- AUC ([2]; in vivo, 6 to <9 years old, post-adjustment, 4 sachets, 200 mg/80 mg, N 9, read-out: AUC): 1520 ng·h/mL
- AUC ([2]; in vivo, 9 to <12 years old, post-adjustment, 5 sachets, 250 mg/100 mg Compound 1/Compound 2, N 10, read-out: AUC): 2300 ng·h/mL
- fraction unbound [3]: < 0.001
- Metabolism ([4]; Biotransformation): none
- Major route of elimination ([4]; human, in vivo): Biliary
- Tmax ([4]; human, in vivo, healthy subjects, read-out: Tmax of granules): 3 to 5 h
- Tmax ([4]; human, in vivo, healthy subjects, read-out: Tmax of tablets): 5 h
- half-life ([4]; human, in vivo, healthy subjects, read-out: t1/2 at steady-state): 23 to 29 h
- Effect of meal (relative to fasting) on adult tablets, ↑ [4, 9]: ↑ 40-53%
- Effect of meal (relative to fasting) on granules, ↑ [4, 9]: ↑ 56-115%
- Effect of administration with food on bioavailability ([5]; bilayer tablets): significantly improved
- Cmax ([5]; Regimen A: single dose bilayer tablets 300 mg/120 mg (3 × 100 mg/40 mg), fasting): 116 ng/mL
- AUC(0-inf) [5, 10]: 960 ng·h/mL
- AUC(0-t) [5, 10]: 910 ng·h/mL
- half-life [5, 10]: 13.3 h
- Tmax [5, 10]: 4 h
- AUC(0-inf) [5, 11]: 1350 ng·h/mL
- AUC(0-t) [5, 11]: 1280 ng·h/mL
- Cmax [5, 11]: 221 ng/mL
- half-life [5, 11]: 13 h
- Tmax [5, 11]: 5 h
- AUC(0-inf) [5, 12]: 1460 ng·h/mL
- AUC(0-t) [5, 12]: 1390 ng·h/mL
- Cmax [5, 12]: 237 ng/mL
- half-life [5, 12]: 13.5 h
- Tmax [5, 12]: 5 h
- AUC(0-inf) [5, 13]: 1490 ng·h/mL
- AUC(0-t) [5, 13]: 1420 ng·h/mL
- Cmax [5, 13]: 175 ng/mL
- half-life [5, 13]: 12.5 h
- Tmax [5, 13]: 4 h
- Effect of administration with food on bioavailability ([6]; co-formulated mini-tablets): significantly increased
- Cmax ([6]; Regimen F: single dose mini-tablets 200 mg/120 mg Compound 1/Compound 2, fasting): 96 ng/mL
- AUC(0-inf) [6, 14]: 913 ng·h/mL
- AUC(0-t) [6, 14]: 863 ng·h/mL
- half-life [6, 14]: 13.4 h
- Tmax [6, 14]: 4 h
- Cmax ([6]; Regimen G: single dose mini-tablets 200 mg/120 mg Compound 1/Compound 2, non-fasting): 177 ng/mL
- AUC(0-inf) [6, 15]: 1320 ng·h/mL
- AUC(0-t) [6, 15]: 1250 ng·h/mL
- half-life [6, 15]: 13.2 h
- Tmax [6, 15]: 3 h
- Cmax ([6]; Regimen J: single dose two Compound 1 tablets (100 mg each) and three Compound 2 tablets (40 mg each), fasting): 139 ng/mL
- AUC(0-inf) [6, 16]: 1260 ng·h/mL
- AUC(0-t) [6, 16]: 1190 ng·h/mL
- half-life [6, 16]: 13.3 h
- Tmax [6, 16]: 4.5 h
- AUC of mini-tablets higher than that of regular tablets (fasting) ([6]; mini-tablets with food, 120 mg Compound 2): 6%
- AUC of mini-tablets lower than that of regular tablets (fasting) ([6]; mini-tablets without food, 200 mg Compound 1 / 120 mg Compound 2, same solid dispersion formulation): 28%
- % of dose excreted in faeces [7]: 96.6%
- % of dose excreted in urine [7]: 0%
- AUC ([8]; blood, Table 13, 3 to <6 years old, N 10, predicted): 1430 ng·h/mL
- AUC ([8]; blood, Table 13, 6 to <9 years old, N 9, predicted): 1460 ng·h/mL
- AUC ([8]; blood, Table 13, 9 to <12 years old, N 10, predicted from all PK information collected in the study): 1440 ng·h/mL
- AUC ([8]; in vivo, Table 13a, 3 to <6 years old, N 10, predicted): 1760 ng·h/mL
- AUC ([8]; in vivo, Table 13a, 6 to <9 years old, N 9, predicted): 1730 ng·h/mL
- AUC ([8]; in vivo, Table 13a, 9 to <12 years old, N 10, predicted): 2360 ng·h/mL
SMILES: COC(=O)N[C@H](C(=O)N1CCC[C@H]1c1nc2cc([C@H]3CC[C@H](c4cc5nc([C@@H]6CCCN6C(=O)[C@@H](NC(=O)OC)[C@@H](C)OC)[nH]c5cc4F)N3c3cc(F)c(N4CCC(c5ccc(F)cc5)CC4)c(F)c3)c(F)cc2[nH]1)[C@@H](C)OC [Compound 2]
- Exposures in children aged 3 to <12 years vs adolescents 12 to <18 years and adults from Phase 2/3 studies ([2]; recommended doses according to body weight): comparable
